# Key:
# Type in all cases: cell-based
# MOLM-13 cells = experiment: Cell viability assay (CELLTITER-GLO), MOLM-13 cells; conditions: Homo sapiens, MOLM-13, 72 h; Table 2; compound at 10 μM, 3 days; read-out: Effect on MOLM-13 cell viability (% DMSO)
# Procedure, shortened: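 MV-4-11 and MOLM-13 cells in RPMI 1640/10% FBS were seeded at 4,000 cells/well and exposed to compound (10 μM or 1 μM) or DMSO for 3 days at 37 °C, 5% CO2. CellTiter-Glo luminescence gave viability as % DMSO, binned into ranges A (<10%) through D (≥50%).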
# H358 cells = experiment: Cell viability assay (CELLTITER-GLO), H358 cells; conditions: Table 4; 3 days
# Procedure, shortened: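 H358 cells (RPMI 1640, 10% FBS), 4,000 per well, exposed to compound for 3 days at 37 °C, 5% CO2; viability by CellTiter-Glo luminescence. Single-dose viability as % DMSO at 10 or 1 μM, binned A (<10%) to D (≥50%); IC50 binned A (≤1 μM) to D (>10 μM).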
# H23 cells = experiment: Cell viability assay (CELLTITER-GLO), H23 cells; conditions: Table 4; 3 days
# Procedure, shortened: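 H23 cells in RPMI 1640 with 10% FBS, 4,000 cells/well, exposed to compound or DMSO for 3 days at 37° C, 5% CO2. Viability read by CellTiter-Glo luminescence after 10 min. IC50 reported in potency bins.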
SMILES,viability at 10 µM (MOLM-13 cells) [%],"Inhibition of H358 cells, IC50 (class) (H358 cells)","Inhibition of H23 cells, IC50 (class) (H23 cells)"
"CCC(=O)N1CCN(c2ncnc3c(F)c(-c4cc(OCCCCCCCN5CCC(c6cc(F)cc7c6CN(C6CCC(=O)NC6=O)C7=O)CC5)ccc4F)c(Cl)cc23)CC1 (stereo not drawn) [Compound 91, 3-(4-(1-(7-(3-(6-Chloro-8-fluoro-4-(4-propionylpiperazin-1-yl)quinazolin-7-yl)-4-fluorophenoxy)heptyl)piperidin-4-yl)-6-fluoro-1-oxoisoindolin-2-yl)piperidine-2,6-dione]",< 10,B′,B′
"CCC(=O)N1CCN(c2ncnc3c(F)c(-c4c(F)cccc4OCCc4cn(CCN5CCC(c6cc(F)cc7c6CN(C6CCC(=O)NC6=O)C7=O)CC5)nn4)c(Cl)cc23)CC1 (stereo not drawn) [Compound 92, 3-(4-(1-(2-(4-(2-(2-(6-Chloro-8-fluoro-4-(4-propionylpiperazin-1-yl)quinazolin-7-yl)-3-fluorophenoxy)ethyl)-1H-1,2,3-triazol-1-yl)ethyl)piperidin-4-yl)-6-fluoro-1-oxoisoindolin-2-yl)piperidine-2,6-dione]",≥ 50,C′,D′
"CCC(=O)N1CCN(c2ncnc3c(F)c(-c4c(F)cccc4OCCCCCCCN4CCC(c5cc6c(cc5F)C(=O)N(C5CCC(=O)NC5=O)C6)CC4)c(Cl)cc23)CC1 (stereo not drawn) [Compound 93, 3-(5-(1-(7-(2-(6-Chloro-8-fluoro-4-(4-propionylpiperazin-1-yl)quinazolin-7-yl)-3-fluorophenoxy)heptyl)piperidin-4-yl)-6-fluoro-1-oxoisoindolin-2-yl)piperidine-2,6-dione]",< 10,B′,B′
"C=CC(=O)N1CCN(c2ncnc3c(F)c(-c4c(F)cccc4OCCCCCCCN4CCC(c5cc6c(cc5F)C(=O)N(C5CCC(=O)NC5=O)C6)CC4)c(Cl)cc23)CC1 (stereo not drawn) [Compound 94, 3-(5-(1-(7-(2-(4-(4-Acryloylpiperazin-1-yl)-6-chloro-8-fluoroquinazolin-7-yl)-3-fluorophenoxy)heptyl)piperidin-4-yl)-6-fluoro-1-oxoisoindolin-2-yl)piperidine-2,6-dione]",< 10,B′,B′
"CCC(=O)Oc1cccc(F)c1-c1c(Cl)cc2c3c(cnc2c1F)N(CCCCCCCN1CCC(c2cc(F)cc4c2CN(C2CCC(=O)NC2=O)C4=O)CC1)C(=O)[C@H]1CN(C(=O)CC)[C@H](C)CN31 (stereo partly drawn) [Compound 95, 2-((2R,4aR)-11-Chloro-6-(7-(4-(2-(2,6-dioxopiperidin-3-yl)-6-fluoro-1-oxoisoindolin-4-yl)piperidin-1-yl)heptyl)-9-fluoro-2-methyl-5-oxo-3-propionyl-2,3,4,4a,5,6-hexahydro-1H-pyrazino[1′,2′:4,5]pyrazino[2,3-c]quinolin-10-yl)-3-fluorophenyl propionate]",< 10,B′,B′
"C/C=C(\Cl)C(=O)N1CCN(c2ncnc3c(F)c(-c4c(F)cccc4OCCCCCCCN4CCC(c5cc(F)cc6c5CN(C5CCC(=O)NC5=O)C6=O)CC4)c(Cl)cc23)CC1 (stereo not drawn) [Compound 96, (Z)-3-(4-(1-(7-(2-(6-Chloro-4-(4-(2-chlorobut-2-enoyl)piperazin-1-yl)-8-fluoroquinazolin-7-yl)-3-fluorophenoxy)heptyl)piperidin-4-yl)-6-fluoro-1-oxoisoindolin-2-yl)piperidine-2,6-dione]",< 10,B′,B′
"CC(C)/C=C(\Cl)C(=O)N1CCN(c2ncnc3c(F)c(-c4c(F)cccc4OCCCCCCCN4CCC(c5cc(F)cc6c5CN(C5CCC(=O)NC5=O)C6=O)CC4)c(Cl)cc23)CC1 (stereo not drawn) [Compound 97, (Z)-3-(4-(1-(7-(2-(6-Chloro-4-(4-(2-chloro-4-methylpent-2-enoyl)piperazin-1-yl)-8-fluoroquinazolin-7-yl)-3-fluorophenoxy)heptyl)piperidin-4-yl)-6-fluoro-1-oxoisoindolin-2-yl)piperidine-2,6-dione]",< 10,B′,B′
"CC/C=C(\Cl)C(=O)N1CCN(c2ncnc3c(F)c(-c4c(F)cccc4OCCCCCCCN4CCC(c5cc(F)cc6c5CN(C5CCC(=O)NC5=O)C6=O)CC4)c(Cl)cc23)CC1 (stereo not drawn) [Compound 98, (Z)-3-(4-(1-(7-(2-(6-Chloro-4-(4-(2-chloropent-2-enoyl)piperazin-1-yl)-8-fluoroquinazolin-7-yl)-3-fluorophenoxy)heptyl)piperidin-4-yl)-6-fluoro-1-oxoisoindolin-2-yl)piperidine-2,6-dione]",25 to 50,B′,B′
"CC(=O)N1CCN(c2ncnc3c(F)c(-c4c(F)cccc4OCCCCCCCN4CCC(c5cc(F)cc6c5CN(C5CCC(=O)NC5=O)C6=O)CC4)c(Cl)cc23)CC1 (stereo not drawn) [Compound 99, 3-(4-(1-(7-(2-(4-(4-Acetylpiperazin-1-yl)-6-chloro-8-fluoroquinazolin-7-yl)-3-fluorophenoxy)heptyl)piperidin-4-yl)-6-fluoro-1-oxoisoindolin-2-yl)piperidine-2,6-dione]",< 10,B′,B′
"C=C(Cl)C(=O)N1CCN(c2nc(=O)n(-c3ccccc3C(C)C)c3nc(-c4c(F)cccc4OCCCCCCCN4CCC(c5cc(F)cc6c5CN(C5CCC(=O)NC5=O)C6=O)CC4)c(F)cc23)[C@@H](C)C1 (stereo partly drawn) [Compound 100, 3-(4-(1-(7-(2-(4-((S)-4-(2-Chloroacryloyl)-2-methylpiperazin-1-yl)-6-fluoro-1-(2-isopropylphenyl)-2-oxo-1,2-dihydropyrido[2,3-d]pyrimidin-7-yl)-3-fluorophenoxy)heptyl)piperidin-4-yl)-6-fluoro-1-oxoisoindolin-2-yl)piperidine-2,6-dione]",< 10,A′,A′
"C=C(Cl)C(=O)N1CCN(c2ncnc3c(F)c(-c4c(F)cccc4OCCOCc4ccc(COCCN5CCC(c6cc(F)cc7c6CN(C6CCC(=O)NC6=O)C7=O)CC5)cc4)c(Cl)cc23)CC1 (stereo not drawn) [Compound 101, 3-(4-(1-(2-((4-((2-(2-(6-Chloro-4-(4-(2-chloroacryloyl)piperazin-1-yl)-8-fluoroquinazolin-7-yl)-3-fluorophenoxy)ethoxy)methyl)benzyl)oxy)ethyl)piperidin-4-yl)-6-fluoro-1-oxoisoindolin-2-yl)piperidine-2,6-dione]",< 10,A′,A′
"C=C(Cl)C(=O)N1CCN(c2ncnc3c(F)c(-c4c(F)cccc4OCCCCCCCN4CCC(c5cc(F)cc6c5CN(C5CCC(=O)NC5=O)C6=O)CC4)c(Cl)cc23)C[C@H]1CC#N (stereo partly drawn) [Compound 102, 2-((2R)-4-(6-Chloro-7-(2-((7-(4-(2-(2,6-dioxopiperidin-3-yl)-6-fluoro-1-oxoisoindolin-4-yl)piperidin-1-yl)heptyl)oxy)-6-fluorophenyl)-8-fluoroquinazolin-4-yl)-1-(2-chloroacryloyl)-piperazin-2-yl)acetonitrile]",< 10,A′,A′
"C=C(Cl)C(=O)N1CCN(c2ncnc3c(F)c(-c4c(F)cccc4OCCCCCN4CCC(c5cc(F)cc6c5CN(C5CCC(=O)NC5=O)C6=O)CC4)c(Cl)cc23)CC1 (stereo not drawn) [Compound 103, 3-(4-(1-(5-(2-(6-Chloro-4-(4-(2-chloroacryloyl)piperazin-1-yl)-8-fluoroquinazolin-7-yl)-3-fluorophenoxy)pentyl)piperidin-4-yl)-6-fluoro-1-oxoisoindolin-2-yl)piperidine-2,6-dione]",< 10,A′,A′
"C=C(Cl)C(=O)N1C[C@@H]2C(=O)N(C)c3cnc4c(F)c(-c5c(F)cccc5OCCCCCCCN5CCC(c6cc(F)cc7c6CN(C6CCC(=O)NC6=O)C7=O)CC5)c(Cl)cc4c3N2C[C@H]1C (stereo partly drawn) [Compound 104, 3-(4-(1-(7-(2-((2R,4aR)-11-Chloro-3-(2-chloroacryloyl)-9-fluoro-2,6-dimethyl-5-oxo-2,3,4,4a,5,6-hexahydro-1H-pyrazino[1′,2′:4,5]pyrazino[2,3-c]quinolin-10-yl)-3-fluorophenoxy)-heptyl)piperidin-4-yl)-6-fluoro-1-oxoisoindolin-2-yl)piperidine-2,6-dione]",< 10,B′,B′
"C=C(Cl)C(=O)N1CCN(c2ncnc3cc(-c4c(F)cccc4OCCCCCCCN4CCC(c5cccc6c5CN(C5CCC(=O)NC5=O)C6=O)CC4)c(Cl)cc23)CC1 (stereo not drawn) [Compound 105, 3-(4-(1-(7-(2-(6-Chloro-4-(4-(2-chloroacryloyl)piperazin-1-yl)quinazolin-7-yl)-3-fluorophenoxy)heptyl)piperidin-4-yl)-1-oxoisoindolin-2-yl)piperidine-2,6-dione]",< 10,A′,A′
